Results taken from patent US10167284B2, “Spirocyclic compounds as agonists of the muscarinic M1 receptor and/or M4 receptor” (HEPTARES THERAPEUTICS LIMITED, priority 2015, dated 2019).

Legend:
[1] = molecular target: T1, human muscarinic M1 receptor (Homo sapiens, UniProt P11229); experiment: Alphascreen Surefire phospho-ERK1/2 functional assay, M1; assay type: cell-based; conditions: for EC50 / M1 % Emax cf. ACh: CHO cells stably expressing human M1; for EC50: phospho-ERK1/2, read-out: pEC50 M1 (converted); for Emax: CHO, read-out: M1 % Emax cf. ACh, CHO cells stably expressing human M1; for Emax / M1 % Emax cf. ACh: Emax relative to ACh
T1 construct: expressed in transfected cells
T1 sequence (P11229 1-460): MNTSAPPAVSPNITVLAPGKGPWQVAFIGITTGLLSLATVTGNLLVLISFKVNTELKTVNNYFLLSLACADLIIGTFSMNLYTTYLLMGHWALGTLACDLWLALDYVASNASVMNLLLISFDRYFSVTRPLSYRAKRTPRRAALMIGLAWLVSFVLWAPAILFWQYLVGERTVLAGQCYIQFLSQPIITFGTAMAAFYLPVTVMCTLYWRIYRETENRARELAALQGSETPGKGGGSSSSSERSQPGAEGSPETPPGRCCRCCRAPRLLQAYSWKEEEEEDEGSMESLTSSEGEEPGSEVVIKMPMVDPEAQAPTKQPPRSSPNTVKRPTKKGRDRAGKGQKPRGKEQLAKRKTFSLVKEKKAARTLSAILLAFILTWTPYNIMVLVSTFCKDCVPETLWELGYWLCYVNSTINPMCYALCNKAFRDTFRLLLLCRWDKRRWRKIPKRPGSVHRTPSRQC
Method: CHO cells stably expressing the human muscarinic M1, M2, M3 or M4 receptor were plated (25K/well) onto 96-well tissue culture plates in MEM-alpha+10% dialysed FBS. Once adhered, cells were serum-starved overnight. Agonist stimulation was performed by the addition of 5 μL agonist to the cells for 5 min (37° C.). Media was removed and 50 μL of lysis buffer added. After 15 min, a 4 μL sample was transferred to 384-well plate and 7 μL of detection mixture added. Plates were incubated for 2 h with gentle agitation in the dark and then read on a PHERAstar plate reader.
pEC50 and Emax figures were calculated from the resulting data for each receptor subtype.

[2] = molecular target: T2, human muscarinic M4 receptor (Homo sapiens, UniProt P08173); experiment: Alphascreen Surefire phospho-ERK1/2 functional assay, M4; assay type: cell-based; conditions: for EC50 / M4 % Emax cf. ACh: CHO cells stably expressing human M4; for EC50: phospho-ERK1/2, read-out: pEC50 M4 (converted); for Emax: CHO, read-out: M4 % Emax cf. ACh, CHO cells stably expressing human M4; for Emax / M4 % Emax cf. ACh: Emax relative to ACh
T2 construct: expressed in transfected cells
T2 sequence (P08173 1-479): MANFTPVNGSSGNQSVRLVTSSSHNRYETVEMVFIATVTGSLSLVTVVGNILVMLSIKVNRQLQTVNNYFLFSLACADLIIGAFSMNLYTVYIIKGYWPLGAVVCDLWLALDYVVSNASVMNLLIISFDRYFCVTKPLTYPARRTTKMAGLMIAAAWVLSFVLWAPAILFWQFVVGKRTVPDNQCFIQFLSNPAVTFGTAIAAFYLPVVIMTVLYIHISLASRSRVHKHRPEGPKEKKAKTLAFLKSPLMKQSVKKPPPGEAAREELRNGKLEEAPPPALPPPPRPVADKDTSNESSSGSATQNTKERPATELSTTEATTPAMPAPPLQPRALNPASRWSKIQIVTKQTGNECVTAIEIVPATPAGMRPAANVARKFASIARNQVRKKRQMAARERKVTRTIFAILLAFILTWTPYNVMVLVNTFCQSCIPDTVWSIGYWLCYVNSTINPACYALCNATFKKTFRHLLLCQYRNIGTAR

Row | EC50 [1] | Emax [1] | EC50 [2] | Emax [2] | M1 % Emax cf. ACh [1] | M4 % Emax cf. ACh [2] | Structure (SMILES)
1 | 0.794 µM | 73% | 0.126 µM | 69% | – | – | CCOC(=O)N1CCC2(CC(N3CCC4(CC3)OC(=O)N(CC3CC3)C4CC)C2)C1 (single isomer, unassigned) [4-25 Isomer 2 (racemic)]
2 | 0.501 µM | – | > 20 µM | – | (36) % | (10) % | CCOC(=O)N1CCC2(CC(N3CCC4(CC3)CC(=O)NN4Cc3ccccc3)C2)C1 (single isomer, unassigned) [6-6 Isomer 1]
3 | 1 µM | 57% | 0.0316 µM | 108% | – | – | CCOC(=O)N1CCC2(CC(N3CCC4(CC3)OC(=O)N(CC)C4(C)C)C2)C1 (single isomer, unassigned) [4-35 Isomer 2]
4 | > 20 µM | – | > 20 µM | – | (1) % | (2) % | CCOC(=O)N1CCC2(CC(N3CCC4(CC3)OC(=O)N(CC)C4CC)C2)C1 (single isomer, unassigned) [4-22 Isomer 2]
5 | 1.26 µM | 63% | 0.398 µM | 58% | – | – | CCOC(=O)N1CCC2(CC(N3CCC4(CC3)CN(C(C)C)C(=O)O4)C2)C1 (single isomer, unassigned) [4-8 Isomer 2]
6 | 1 µM | 104% | 0.631 µM | 76% | – | – | CCOC(=O)N1CCC2(CC(N3CCC4(CC3)CN(CC(C)C)C(=O)O4)C2)C1 (single isomer, unassigned) [4-9 Isomer 2]
7 | 3.16 µM | 92% | 1 µM | 73% | – | – | CCOC(=O)N1CC2(CC(N3CCC4(CC3)OC(=O)NC4(C)C)C2)C1 [Example 2-3, ethyl 6-(4,4-dimethyl-2-oxo-1-oxa-3,8-diazaspiro[4.5]decan-8-yl)-2-azaspiro[3.3]heptane-2-carboxylate]
8 | 0.631 µM | 52% | 0.398 µM | 24% | – | – | CC(C)OC(=O)N1CCC2(CC(N3CCC4(CC3)CNC(=O)O4)C2)C1 (single isomer, unassigned) [4-4 Isomer 2]
9 | > 20 µM | – | 0.501 µM | – | (9) % | (33) % | CCCN1C(=O)OC2(CCN(C3CC4(CCN(C(=O)OCC)C4)C3)CC2)C1CC (single isomer, unassigned) [4-23 Isomer 1]
10 | 0.316 µM | 107% | > 20 µM | 66% | – | – | CCOC(=O)N1CC2(CC(N3CCC4(CC3)CNC(=O)C4)C2)C1 [Example 1-1, ethyl 6-(3-oxo-2,8-diazaspiro[4.5]dec-8-yl)-2-azaspiro[3.3]heptane-2-carboxylate]
11 | 2 µM | 56% | > 20 µM | 20% | – | – | CCOC(=O)N1CCC2(CC(N3CCC4(CC3)CC(=O)NN4C(C)C)C2)C1 (single isomer, unassigned) [6-5 Isomer 2]
12 | 0.251 µM | – | 0.316 µM | – | (91) % | (37) % | CCOC(=O)N1CCC2(CC(N3CCC4(CC3)CNC(=O)O4)C2)C1 (single isomer, unassigned) [4-3 Isomer 1]
13 | 3.16 µM | – | 0.316 µM | – | (35) % | (30) % | CCC1NC(=O)CC12CCN(C1CC3(CCN(C(=O)OC)C3)C1)CC2 (single isomer, unassigned) [3-4 Isomer 1]
14 | 2 µM | – | 0.501 µM | – | (57) % | (42) % | CCOC(=O)N1CCC2(CC(N3CCC4(CC3)OC(=O)N(C)C4CC)C2)C1 (single isomer, unassigned) [4-20 Isomer 1]
15 | 0.794 µM | 77% | 0.2 µM | 36% | – | – | CCC1N(CC)C(=O)OC12CCN(C1CC3(CCN(C(=O)OC)C3)C1)CC2 (single isomer, unassigned) [4-21 Isomer 2 (racemic)]
16 | 1.26 µM | 90% | 0.0398 µM | 109% | – | – | CCCN1N(C)C(=O)CC12CCN(C1CC3(CCN(C(=O)OCC)C3)C1)CC2 (single isomer, unassigned) [6-10 Isomer 2]
17 | > 20 µM | – | > 20 µM | – | (0) % | (1) % | CCOC(=O)N1CCC2(CC(N3CCC4(CC3)OC(=O)NC4CC)C2)C1 (single isomer, unassigned) [4-12 Isomer 2]
18 | 0.501 µM | 85% | 0.158 µM | 87% | – | – | CCOC(=O)N1CCC2(CC(N3CCC4(CC3)OC(=O)NC4C3CCC3)C2)C1 (single isomer, unassigned) [4-15 Isomer 1 (racemic)]
19 | 1 µM | 28% | 0.126 µM | 34% | – | – | CCOC(=O)N1CC2(CC(N3CCC4(CC3)OC(=O)N3CCCC34)C2)C1 (centres unmarked) [Example 2-5, ethyl 6-(3′-oxotetrahydro-1H-spiro[piperidine-4,1′-pyrrolo[1,2-c][1,3]oxazol]-1-yl)-2-azaspiro[3.3]heptane-2-carboxylate]
20 | 2 µM | – | 0.2 µM | – | (71) % | (36) % | CCC1NC(=O)CC12CCN(C1CC3(CCN(C(=O)OC)C3)C1)CC2 (single isomer, unassigned) [3-4 Isomer 2]
21 | 0.2 µM | 98% | 0.794 µM | 72% | – | – | CCOC(=O)N1CCC2(CC(N3CCC4(CC3)OC(=O)NC4Cc3ccccn3)C2)C1 (single isomer, unassigned) [4-19 Isomer 2 (racemic)]
22 | 1.26 µM | 49% | 0.158 µM | 63% | – | – | CCOC(=O)N1CCC2(CC(N3CCC4(CC3)OC(=O)NC43CC(F)(F)C3)C2)C1 (single isomer, unassigned) [4-30 Isomer 1]
23 | > 20 µM | – | > 20 µM | – | (5) % | (3) % | CCCN1C(=O)OC2(CCN(C3CC4(CCN(C(=O)OCC)C4)C3)CC2)C1CC (single isomer, unassigned) [4-23 Isomer 2]
24 | 1 µM | 59% | 0.316 µM | 36% | – | – | COC(=O)N1CCC2(CC(N3CCC4(CC3)OC(=O)N3CCCC34)C2)C1 (single isomer, unassigned) [4-45 Isomer 2]
25 | > 20 µM | – | > 20 µM | – | (16) % | (9) % | CCOC(=O)N1CCC2(CC(N3CCC4(CC3)OC(=O)N(C)C4CC)C2)C1 (single isomer, unassigned) [4-20 Isomer 2]
26 | > 20 µM | 16% | 0.2 µM | 52% | – | – | CCOC(=O)N1CCC2(CC(N3CCC4(CC3)OC(=O)N(CC#N)C4(C)C)C2)C1 (single isomer, unassigned) [4-42 Isomer 2]
27 | 10 µM | – | 0.251 µM | – | (65) % | (59) % | CCOC(=O)N1CCC2(CC(N3CCC4(CC3)OC(=O)NC4(C)C)C2)C1 (single isomer, unassigned) [4-27 Isomer 1]
28 | 0.794 µM | – | > 20 µM | – | (29) % | (13) % | CCCN1C(=O)OC2(CCN(C3CC4(CCN(C(=O)OCC)C4)C3)CC2)C1(C)C (single isomer, unassigned) [4-37 Isomer 2]
29 | > 20 µM | – | > 20 µM | – | (13) % | (18) % | CCOC(=O)N1CCC2(CC(N3CCC4(CC3)OC(=O)N(CC)C4CC)C2)C1 (single isomer, unassigned) [4-22 Isomer 1]
